# Biological target: T1, HPK1 (Homo sapiens, UniProt Q92918)
# T1 construct: A HiBiT tag was introduced by CRISPR on the N terminus of HPK1 in Jurkat cells; host or cells: Jurkat (ATCC TIB-152), monoclonal CRISPR HiBiT knock-in line
# Assay: HPK1 Cellular HiBiT Degradation Assay
# Format: cell-based
# Details: HiBiT-tagged HPK1 Jurkat cells, 24 hours, 10 uM to 0.1 nM; Dmax = 100 minus lowest % HPK1 remaining vs DMSO vehicle
# Outline: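 Jurkat cells with CRISPR N-terminal HiBiT-tagged HPK1 were exposed to an 11-point 3.16-fold dilution series, 10 uM to 0.1 nM final, for 24 hours at 37° C./5% CO2. HPK1 was read by HiBiT lytic luminescence against DMSO as 100% and parental cells as background. Dmax is 100 minus the lowest % remaining from a four-parameter fit, with a parallel CellTiter-Glo viability check.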
# T1 sequence (Q92918 whole entry): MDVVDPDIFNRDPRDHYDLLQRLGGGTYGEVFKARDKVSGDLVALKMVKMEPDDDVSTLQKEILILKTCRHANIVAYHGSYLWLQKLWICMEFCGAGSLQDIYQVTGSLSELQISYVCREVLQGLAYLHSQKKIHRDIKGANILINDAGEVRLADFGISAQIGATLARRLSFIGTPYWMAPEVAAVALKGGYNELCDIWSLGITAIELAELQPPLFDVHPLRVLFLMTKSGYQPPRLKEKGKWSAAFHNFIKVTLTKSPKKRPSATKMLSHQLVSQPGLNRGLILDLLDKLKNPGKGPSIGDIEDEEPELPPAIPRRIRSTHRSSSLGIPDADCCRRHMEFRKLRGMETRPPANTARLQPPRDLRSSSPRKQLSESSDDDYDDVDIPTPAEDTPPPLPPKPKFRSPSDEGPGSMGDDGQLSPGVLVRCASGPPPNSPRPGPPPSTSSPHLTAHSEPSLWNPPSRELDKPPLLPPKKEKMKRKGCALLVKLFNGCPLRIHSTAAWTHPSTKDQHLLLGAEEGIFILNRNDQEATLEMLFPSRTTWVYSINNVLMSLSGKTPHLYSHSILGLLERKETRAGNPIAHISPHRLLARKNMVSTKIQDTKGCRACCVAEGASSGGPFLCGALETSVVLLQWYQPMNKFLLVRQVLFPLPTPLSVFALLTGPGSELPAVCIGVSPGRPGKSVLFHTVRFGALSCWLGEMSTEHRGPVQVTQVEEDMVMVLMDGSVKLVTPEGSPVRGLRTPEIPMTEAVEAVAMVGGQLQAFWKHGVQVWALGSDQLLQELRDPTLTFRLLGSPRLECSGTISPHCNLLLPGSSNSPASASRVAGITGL
row,Compound,Dmax [%]
1,"Cc1cc(F)c(Nc2nc(-c3ccc4c(c3)N([C@H]3C[C@@H](N5CCCCC5)C3)C(=O)C43CCN(C(=O)[C@H]4CC[C@@H](C(=O)N5CCC(N(C)c6cccc7c6C(=O)N(C6CCC(=O)NC6=O)C7=O)CC5)CC4)CC3)cc3ncn(C(C)C)c23)cc1C(=O)NC(C)C (stereo partly drawn) [Example 62, 4-fluoro-2-methyl-5-[(6-{2-oxo-1-[(1s,3s)-3-(piperidin-1-yl)cyclobutyl]-1′-[(1S,4s)-4-(4-{[2-(2,6-dioxopiperidin-3-yl)-1,3-dioxo-2,3-dihydro-1H-isoindol-4-yl](methyl)amino}piperidine-1-carbonyl)cyclohexanecarbonyl]-1,2-dihydrospiro[indole-3,4′-piperidin]-6-yl}-3-(propan-2-yl)-3H-imidazo[4,5-c]pyridin-4-yl)amino]-N-(propan-2-yl)benzamide]",45 to 65
2,"Cc1cc(F)c(Nc2nc(-c3ccc4c(c3)N([C@H]3C[C@@H](N5CCCCC5)C3)C(=O)C43CCN(C(=O)[C@H]4CC[C@H](C(=O)N5CCC(Nc6cccc7c6C(=O)N(C6CCC(=O)NC6=O)C7=O)CC5)CC4)CC3)cc3ncn(C(C)C)c23)cc1C(=O)NC(C)C (stereo partly drawn) [Example 51, 4-fluoro-2-methyl-5-[(6-{2-oxo-1′-[(R,4R)-4-[4-({2-[2,6-dioxopiperidin-3-yl]-1,3-dioxo-2,3-dihydro-1H-isoindol-4-yl}amino)piperidine-1-carbonyl]cyclohexanecarbonyl]-1-[(1s,3s)-3-(piperidin-1-yl)cyclobutyl]-1,2-dihydrospiro[indole-3,4′-piperidin]-6-yl}-3-(propan-2-yl)-3H-imidazo[4,5-c]pyridin-4-yl)amino]-N-(propan-2-yl)benzamide]",45 to 65
3,"Cc1cc(F)c(Nc2nc(-c3ccc4c(c3)N(C3CC(N5CCCCC5)C3)C(=O)C43CCN(C(=O)[C@@H]4CCN(C(=O)[C@H]5CC[C@H](Oc6cccc7c6C(=O)N(C6CCC(=O)NC6=O)C7=O)CC5)C4)CC3)cc3ncn(C(C)C)c23)cc1C(=O)NC(C)C (stereo partly drawn) [Example 54, 4-fluoro-2-methyl-5-[(6-{2-oxo-1′-[(3R)-1-[(1R,4R)-4-{[2-(2,6-dioxopiperidin-3-yl)-1,3-dioxo-2,3-dihydro-1H-isoindol-4-yl]oxy}cyclohexanecarbonyl]pyrrolidine-3-carbonyl]-1-[(1s,3s)-3-(piperidin-1-yl)cyclobutyl]-1,2-dihydrospiro[indole-3,4′-piperidin]-6-yl}-3-(propan-2-yl)-3H-imidazo[4,5-c]pyridin-4-yl)amino]-N-(propan-2-yl)benzamide]",< 45
4,"Cc1cc(F)c(Nc2nc(-c3ccc4c(c3)N(C3CC(N5CCCCC5)C3)C(=O)C43CCN(C(=O)CCOCCOCCOCCNc4ccc5c(c4)C(=O)N(C4CCC(=O)NC4=O)C5=O)CC3)cc3ncn(C(C)C)c23)cc1C(=O)NC(C)C (stereo not drawn) [Example 5, 5-((6-(1′-(3-(2-(2-(2-((2-(2,6-dioxopiperidin-3-yl)-1,3-dioxoisoindolin-5-yl)amino)ethoxy)ethoxy)ethoxy)propanoyl)-2-oxo-1-((1s,3s)-3-(piperidin-1-yl)cyclobutyl)spiro[indoline-3,4′-piperidin]-6-yl)-3-isopropyl-3H-imidazo[4,5-c]pyridin-4-yl)amino)-4-fluoro-N-isopropyl-2-methylbenzamide]",< 45
5,"Cc1cc(F)c(Nc2nc(-c3ccc4c(c3)N([C@H]3C[C@@H](N5CCCCC5)C3)C(=O)C43CCN(C(=O)c4cnc(N5CCN(c6cccc7c6C(=O)N(C6CCC(=O)NC6=O)C7=O)CC5)cn4)CC3)cc3ncn(C(C)C)c23)cc1C(=O)NC(C)C (stereo partly drawn) [Example 84, 5-((6-(1′-(5-(4-(2-(2,6-dioxopiperidin-3-yl)-1,3-dioxoisoindolin-4-yl)piperazin-1-yl)pyrazine-2-carbonyl)-2-oxo-1-((1s,3s)-3-(piperidin-1-yl)cyclobutyl)spiro[indoline-3,4′-piperidin]-6-yl)-3-isopropyl-3H-imidazo[4,5-c]pyridin-4-yl)amino)-4-fluoro-N-isopropyl-2-methylbenzamide]",45 to 65
6,"Cc1cc(F)c(Nc2nc(-c3ccc4c(c3)N([C@H]3C[C@@H](N5CCCCC5)C3)C(=O)C43CCN(C(=O)c4ccc(C(=O)N5CCC(c6ccc7c(c6)C(=O)N(C6CCC(=O)NC6=O)C7=O)CC5)cc4)CC3)cc3ncn(C(C)C)c23)cc1C(=O)NC(C)C (stereo partly drawn) [Example 76, 5-[(6-{1′-[4-(4-{2-[2,6-dioxopiperidin-3-yl]-1,3-dioxo-2,3-dihydro-1H-isoindol-5-yl}piperidine-1-carbonyl)benzoyl]-2-oxo-1-[(1s,3s)-3-(piperidin-1-yl)cyclobutyl]-1,2-dihydrospiro[indole-3,4′-piperidin]-6-yl}-3-(propan-2-yl)-3H-imidazo[4,5-c]pyridin-4-yl)amino]-4-fluoro-2-methyl-N-(propan-2-yl)benzamide]",45 to 65
7,"Cc1cc(F)c(Nc2nc(-c3ccc4c(c3)N([C@H]3C[C@@H](N5CCCCC5)C3)C(=O)C43CCN(C(=O)C4CCN(C(=O)[C@H]5CC[C@H](N(C)c6cccc7c6C(=O)N(C6CCC(=O)NC6=O)C7=O)CC5)CC4)CC3)cc3ncn(C(C)C)c23)cc1C(=O)NC(C)C (stereo partly drawn) [Example 66, 4-fluoro-2-methyl-5-{[6-(2-oxo-1′-{1-[(1R,4R)-4-({2-[2,6-dioxopiperidin-3-yl]-1,3-dioxo-2,3-dihydro-1H-isoindol-4-yl}(methyl)amino)cyclohexanecarbonyl]piperidine-4-carbonyl}-1-[(1s,3s)-3-(piperidin-1-yl)cyclobutyl]-1,2-dihydrospiro[indole-3,4′-piperidin]-6-yl)-3-(propan-2-yl)-3H-imidazo[4,5-c]pyridin-4-yl]amino}-N-(propan-2-yl)benzamide]",> 65

# Second part, the compound after the results:
row,Dmax [%],Compound
1,< 45,"Cc1cc(F)c(Nc2nc(-c3ccc4c(c3)N([C@H]3C[C@@H](N5CCCCC5)C3)C(=O)C43CCN(C(=O)CCN4CCC(CCCCC(=O)N[C@H](C(=O)N5C[C@H](O)C[C@H]5C(=O)N[C@@H](C)c5ccc(-c6scnc6C)cc5)C(C)(C)C)CC4)CC3)cc3ncn(C(C)C)c23)cc1C(=O)NC(C)C [Example 20, (2S,4R)-1-((S)-2-(5-(1-(3-(6-(4-((2-fluoro-5-(isopropylcarbamoyl)-4-methylphenyl)amino)-3-isopropyl-3H-imidazo[4,5-c]pyridin-6-yl)-2-oxo-1-((1s,3s)-3-(piperidin-1-yl)cyclobutyl)spiro[indoline-3,4′-piperidin]-1′-yl)-3-oxopropyl)piperidin-4-yl)pentanamido)-3,3-dimethylbutanoyl)-4-hydroxy-N—((S)-1-(4-(4-methylthiazol-5-yl)phenyl)ethyl)pyrrolidine-2-carboxamide]"
2,45 to 65,"Cc1cc(F)c(Nc2nc(-c3ccc4c(c3)N([C@H]3C[C@@H](N5CCCCC5)C3)C(=O)C43CCN(C(=O)CCC4CCCN(CC(=O)NC(C(=O)N5C[C@H](O)C[C@H]5C(=O)N[C@@H](C)c5ccc(-c6scnc6C)cc5)C(C)(C)C)C4)CC3)cc3ncn(C(C)C)c23)cc1C(=O)NC(C)C (stereo partly drawn) [Example 48, (2S,4R)-1-((2S)-2-(2-(3-(3-(6-(4-((2-fluoro-5-(isopropylcarbamoyl)-4-methylphenyl)amino)-3-isopropyl-3H-imidazo[4,5-c]pyridin-6-yl)-2-oxo-1-((1s,3s)-3-(piperidin-1-yl)cyclobutyl)spiro[indoline-3,4′-piperidin]-1′-yl)-3-oxopropyl)piperidin-1-yl)acetamido)-3,3-dimethylbutanoyl)-4-hydroxy-N—((S)-1-(4-(4-methylthiazol-5-yl)phenyl)ethyl)pyrrolidine-2-carboxamide]"
3,< 45,"Cc1cc(F)c(Nc2nc(-c3ccc4c(c3)N([C@H]3C[C@@H](N5CCCCC5)C3)C(=O)C43CCN(C(=O)c4ccc(N5CCN(c6ccc7c(c6)C(=O)N(C6CCC(=O)NC6=O)C7=O)CC5)nc4)CC3)cc3ncn(C(C)C)c23)cc1C(=O)NC(C)C (stereo partly drawn) [Example 85, 5-((6-(1′-(6-(4-(2-(2,6-dioxopiperidin-3-yl)-1,3-dioxoisoindolin-5-yl)piperazin-1-yl)nicotinoyl)-2-oxo-1-((1s,3s)-3-(piperidin-1-yl)cyclobutyl)spiro[indoline-3,4′-piperidin]-6-yl)-3-isopropyl-3H-imidazo[4,5-c]pyridin-4-yl)amino)-4-fluoro-N-isopropyl-2-methylbenzamide]"
4,> 65,"Cc1cc(F)c(Nc2nc(-c3ccc4c(c3)N([C@H]3C[C@@H](N5CCCCC5)C3)C(=O)C43CCN(C(=O)CCCCCC(=O)N[C@H](C(=O)N4C[C@H](O)C[C@H]4C(=O)N[C@@H](C)c4ccc(-c5scnc5C)cc4)C(C)(C)C)CC3)cc3ncn(C(C)C)c23)cc1C(=O)NC(C)C [Example 7, (2S,4R)-1-((S)-2-(7-(6-(4-((2-fluoro-5-(isopropylcarbamoyl)-4-methylphenyl)amino)-3-isopropyl-3H-imidazo[4,5-c]pyridin-6-yl)-2-oxo-1-((1s,3s)-3-(piperidin-1-yl)cyclobutyl)spiro[indoline-3,4′-piperidin]-1′-yl)-7-oxoheptanamido)-3,3-dimethylbutanoyl)-4-hydroxy-N—((S)-1-(4-(4-methylthiazol-5-yl)phenyl)ethyl)pyrrolidine-2-carboxamide]"
5,45 to 65,"Cc1cc(F)c(Nc2nc(-c3ccc4c(c3)N([C@H]3C[C@@H](N5CCCCC5)C3)C(=O)C43CCN(C(=O)CC4CCCN(CC5CCN(c6ccc7c(c6)C(=O)N(C6CCC(=O)NC6=O)C7=O)C5)C4)CC3)cc3ncn(C(C)C)c23)cc1C(=O)NC(C)C (stereo partly drawn) [Example 29, 5-{[6-(1′-{2-[(3S)-1-({1-[2-(2,6-dioxopiperidin-3-yl)-1,3-dioxo-2,3-dihydro-1H-isoindol-5-yl]pyrrolidin-3-yl}Methyl)piperidin-3-yl]acetyl}-2-oxo-1-[(1s,3s)-3-(piperidin-1-yl)cyclobutyl]-1,2-dihydrospiro[indole-3,4′-piperidin]-6-yl)-3-(propan-2-yl)-3H-imidazo[4,5-c]pyridin-4-yl]amino}-4-fluoro-2-methyl-N-(propan-2-yl)benzamide]"

# Source: US11739101B2, “Bifunctional degraders of hematopoietic progenitor kinase and therapeutic uses thereof” (Nurix Therapeutics, Inc., priority 2020, dated 2023)
